Data: patent US20260209249A1, “NOVEL TRICYCLIC COMPOUND AS KRAS G12D INHIBITOR, AND USE THEREOF” (SK Biopharmaceuticals Co., priority 2022, published 2026)

Tests used:
[1] = biological target: T1, GDP-KRAS G12D mutant protein (Homo sapiens, UniProt P01116, G12D); assay: Differential scanning fluorimetry (DSF) binding affinity to GDP-KRAS G12D mutant protein; conditions: DSF thermal shift, 10 μM compound, 4 μg KRAS protein
T1 construct: purchased Daegu Gyeongbuk Medical Innovation Foundation (DGMIF), made to order
Summary of the method: (§1)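 Thermal shift ΔTm was measured at 10 μM compound over a 25–99 °C ramp (0.05 °C/s), read at 580 nm ex/623 nm em with SYPRO Orange (2×). The protein (4 μg) was preincubated with compound for 30 min at room temperature, in 50 mM HEPES pH 7.5 for GppNHp-KRAS G12D or in kit buffer for GDP-KRAS G12D.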

[2] = biological target: T2, GppNHp-KRAS G12D mutant protein (Homo sapiens, UniProt P01116, G12D); assay: Differential scanning fluorimetry (DSF) binding affinity to GppNHp-KRAS G12D mutant protein; conditions: DSF thermal shift, 10 μM compound, 4 μg KRAS protein, 50 mM HEPES (pH 7.5)
T2 construct: purchased Daegu Gyeongbuk Medical Innovation Foundation (DGMIF), made to order
Summary of the method: as §1

[3] = system: KRAS G12D mutant pancreatic cancer cell line AsPC-1; assay: Cell viability assay using KRAS G12D mutant cells (AsPC-1, 3D culture, celltiter-glo 3D); assay type: cell-based; conditions: Homo sapiens, ASPC1, 5th day after compound treatment
Summary of the method: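 AsPC-1 cells in 3D culture, 1000 cells/well, treated next day with 1/5 serial dilutions from 10 μM or 50 μM, 1:1 v/v. Viability read by CellTiter-Glo 3D on day 5, normalized to DMSO (100%) and untreated backgrounds; IC50 from four-parameter sigmoidal fit.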

[4] = system: ERK phosphorylation (pERK) induced by KRAS G12D mutation; assay: Inhibitory activity against ERK phosphorylation (pERK) induced by KRAS G12D mutation, immunofluorescence assay in AsPC-1 cells; assay type: cell-based; conditions: Homo sapiens, ASPC1, 3 h drug treatment, pERK (Thr202/Tyr204) signal normalized to DAPI
Summary of the method: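 AsPC-1 cells attached 16 h, then treated 3 h with 3-fold dilutions from 10 μM top. Fixed, permeabilized, immunostained for pERK (Thr202/Tyr204) with Alexa 488 secondary; high-content imaging, signal normalized to DAPI and to DMSO, IC50 from four-parameter fit.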

Structure (SMILES) | GDP-KRAS G12D (ΔTmD, ° C.) [1] [°C] | GppNHp-KRAS G12D (ΔTmD, ° C.) [2] [°C] | IC50 [3] [nM] | IC50 [4] [nM]
C#Cc1c(F)ccc2cc(O)cc(-c3c(F)c4nc(OC[C@@]56CCCN5C[C@H](F)C6)nc(N5C[C@H]6CC[C@@H](C5)N6)c4c4cn(C)nc34)c12 [Example 80, 4-(9-((1R,5S)-3,8-diazabicyclo[3.2.1]octan-3-yl)-5-fluoro-7-(((2R,7aS)-2-fluorotetrahydro-1H-pyrrolizin-7a(5H)-yl)methoxy)-2-methyl-2H-pyrazolo[4,3-n]quinazolin-4-yl)-5-ethynyl-6-fluoronaphthalen-2-ol] | 14.81 | 11.13 | 46 | 35
C#Cc1c(F)ccc2cc(N)cc(-c3c(F)c4nc(OC[C@@]56CCCN5C[C@H](F)C6)nc(N5C[C@H]6CC[C@@H](C5)N6)c4c4cn(C)nc34)c12 [Example 81, 4-(9-((1R,5S)-3,8-diazabicyclo[3.2.1]octan-3-yl)-5-fluoro-7-(((2R,7aS)-2-fluorotetrahydro-1H-pyrrolizin-7a(5H)-yl)methoxy)-2-methyl-2H-pyrazolo[4,3-n]quinazolin-4-yl)-5-ethynyl-6-fluoronaphthalen-2-amine] | 10.04 | 6.66 | 280 | 81
CCc1c(F)ccc2cc(O)cc(-c3c(F)c4nc(OC[C@@]56CCCN5C/C(=C\F)C6)nc(N5C[C@H]6CC[C@@H](C5)N6)c4c4cn(C)nc34)c12 [Example 85, 4-(9-((1R,5S)-3,8-diazabicyclo[3.2.1]octan-3-yl)-5-fluoro-7-(((S,Z)-2-(fluoromethylene)tetrahydro-1H-pyrrolizin-7a(5H)-yl)methoxy)-2-methyl-2H-pyrazolo[4,3-f]quinazolin-4-yl)-5-ethyl-6-fluoronaphthalen-2-ol] | 15.24 | 12.43 | 11 | 7
Cn1cc2c(n1)c(-c1cc(O)cc3ccc(F)c(F)c13)c(F)c1nc(OC[C@@]34CCCN3C/C(=C\F)C4)nc(N3C[C@H]4CC[C@@H](C3)N4)c12 [Example 86, 4-(9-((1R,5S)-3,8-diazabicyclo[3.2.1]octan-3-yl)-5-fluoro-7-(((S,Z)-2-(fluoromethylene)tetrahydro-1H-pyrrolizin-7a(5H)-yl)methoxy)-2-methyl-2H-pyrazolo[4,3-f]quinazolin-4-yl)-5,6-difluoronaphthalen-2-ol] | 13.07 | 10.69 | 48 | 29
C#Cc1c(F)ccc2cc(O)cc(-c3c(F)c4nc(OCC5(CN6CCC7(CC6)CC7(F)F)CC5)nc(N5C[C@H]6CC[C@@H](C5)N6)c4c4cn(C)nc34)c12 [Example 87, 4-(9-((1R,5S)-3,8-diazabicyclo[3.2.1]octan-3-yl)-7-((1-((1,1-difluoro-6-azaspiro[2.5]octan-6-yl)methyl)cyclopropyl)methoxy)-5-fluoro-2-methyl-2H-pyrazolo[4,3-f]quinazolin-4-yl)-5-ethynyl-6-fluoronaphthalen-2-ol] | 14.94 | 8.86 | 11 | 4
C#Cc1c(F)ccc2cc(O)cc(-c3c(F)c4nc(OC[C@@]56CCCN5C[C@H](F)C6)nc(N5CC6CCC5CN6)c4c4cn(C)nc34)c12 (stereo partly drawn) [Example 88, 4-(9-(2,5-diazabicyclo[2.2.2]octan-2-yl)-5-fluoro-7-(((2R,7aS)-2-fluorotetrahydro-1H-pyrrolizin-7a(5H)-yl)methoxy)-2-methyl-2H-pyrazolo[4,3-n]quinazolin-4-yl)-5-ethynyl-6-fluoronaphthalen-2-ol] | 6.35 | 5.31 | 734 | 484
C#Cc1c(F)ccc2cc(O)cc(-c3c(F)c4nc(OC[C@@]56CCCN5CC(=C(F)F)C6)nc(N5C[C@H]6CC[C@@H](C5)N6)c4c4cn(C)nc34)c12 [Example 90, 4-(9-((1R,5S)-3,8-diazabicyclo[3.2.1]octan-3-yl)-7-(((S)-2-(difluoromethylene)tetrahydro-1H-pyrrolizin-7a(5H)-yl)methoxy)-5-fluoro-2-methyl-2H-pyrazolo[4,3-f]quinazolin-4-yl)-5-ethynyl-6-fluoronaphthalen-2-ol] | 16.27 | 11.38 | 4 | 5
CCc1c(F)ccc2cc(O)cc(-c3c(F)c4nc(OC[C@@]56CCCN5C[C@H](F)C6)nc(N5C[C@H]6CC[C@@H](C5)N6)c4c4cn(C)nc34)c12 [Example 93, 4-(9-((1R,5S)-3,8-diazabicyclo[3.2.1]octan-3-yl)-5-fluoro-7-(((2R,7aS)-2-fluorotetrahydro-1H-pyrrolizin-7a(5H)-yl)methoxy)-2-methyl-2H-pyrazolo[4,3-n]quinazolin-4-yl)-5-ethyl-6-fluoronaphthalen-2-ol] | 14.20 | 8.72 | 38 | 16
C#Cc1c(F)ccc2cc(O)cc(-c3c(F)c4nc(OC[C@@]56CCCN5C/C(=C\F)C6)nc(N5C[C@H]6CC[C@@H](C5)N6)c4c4cn(C)nc34)c12 [Example 94, 4-(9-((1R,5S)-3,8-diazabicyclo[3.2.1]octan-3-yl)-5-fluoro-7-(((S,Z)-2-(fluoromethylene)tetrahydro-1H-pyrrolizin-7a(5H)-yl)methoxy)-2-methyl-2H-pyrazolo[4,3-f]quinazolin-4-yl)-5-ethynyl-6-fluoronaphthalen-2-ol] | 17.46 | 12.28 | 14 | 18
Cn1cc2c(n1)c(-c1cc(O)cc3ccc(F)c(F)c13)c(F)c1nc(OC[C@@]34CCCN3C[C@H](F)C4)nc(N3C[C@H]4CC[C@@H](C3)N4)c12 [Example 95, 4-(9-((1R,5S)-3,8-diazabicyclo[3.2.1]octan-3-yl)-5-fluoro-7-(((2R,7aS)-2-fluorotetrahydro-1H-pyrrolizin-7a(5H)-yl)methoxy)-2-methyl-2H-pyrazolo[4,3-f]quinazolin-4-yl)-5,6-difluoronaphthalen-2-ol] | 11.83 | 7.54 | 263 | 82
C#Cc1c(F)ccc2cc(O)cc(-c3c(F)c4nc(OC[C@@]56CC[C@@H](COC)N5CC(=C)C6)nc(N5C[C@H]6CC[C@@H](C5)N6)c4c4cn(C)nc34)c12 [Example 96, 4-(9-((1R,5S)-3,8-diazabicyclo[3.2.1]octan-3-yl)-5-fluoro-7-(((5S,7aS)-5-(methoxymethyl)-2-methylenetetrahydro-1H-pyrrolizin-7a(5H)-yl)methoxy)-2-methyl-2H-pyrazolo[4,3-n]quinazolin-4-yl)-5-ethynyl-6-fluoronaphthalen-2-ol] | 15.09 | 10.64 | 11 | 20
